# Laboratory results from patent publication US11584709B2, “Multitarget drug for treating diseases in mammals” (“PHARMENTERPRISES EURASIA” LIMITED LIABILITY COMPANY, priority 2017, dated 2023).
# How the values were obtained:
# [1] = molecular target: T1, human recombinant cathepsin S (Homo sapiens, UniProt P25774); test: Effect on the enzymatic activity of cathepsin S; type: biochemical; settings: inhibitor; preincubated 15 minutes at 37° C.; substrate Z-Phe-Arg-AMC (6 μM)
# T1 construct: host or cells: E. coli
# T1 sequence (P25774 115-331): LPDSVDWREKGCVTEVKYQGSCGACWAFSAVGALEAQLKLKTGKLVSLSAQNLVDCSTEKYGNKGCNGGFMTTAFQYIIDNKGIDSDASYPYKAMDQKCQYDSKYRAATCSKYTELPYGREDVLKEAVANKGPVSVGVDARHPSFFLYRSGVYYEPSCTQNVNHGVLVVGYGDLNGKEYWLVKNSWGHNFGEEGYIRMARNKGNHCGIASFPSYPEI
# Method: Compound 1 was dissolved in DMSO to a concentration of 100 mM; then a stock solution was serially diluted with DMSO. The maximum starting concentration of the substance is 100 μM. The effect was determined at 5 concentrations of the tested compounds, each concentration was studied twice. A human recombinant cathepsin S, expressed in E. coli was used in the experiment. Test compounds were preincubated for 15 minutes at 37° C. with an enzyme whose activity was determined by the rate of transformation of the substrate Z-Phe-Arg-AMC (6 μM) by the fluorescence spectroscopy (Protein Sci. 1996 April; 5(4):789-91).
# [2] = molecular target: T2, tachykinin receptor type 2 (NK2R) (Homo sapiens, UniProt P21452); test: Activity of tachykinin receptor type 2 (NK2R), intracellular calcium, CHO cells; type: cell-based; settings: antagonist, [Nleu10]-NKA-(4-10) (10 nM) agonist
# T2 construct: expressed in transfected cells; host or cells: CHO cells
# T2 sequence (P21452 1-398): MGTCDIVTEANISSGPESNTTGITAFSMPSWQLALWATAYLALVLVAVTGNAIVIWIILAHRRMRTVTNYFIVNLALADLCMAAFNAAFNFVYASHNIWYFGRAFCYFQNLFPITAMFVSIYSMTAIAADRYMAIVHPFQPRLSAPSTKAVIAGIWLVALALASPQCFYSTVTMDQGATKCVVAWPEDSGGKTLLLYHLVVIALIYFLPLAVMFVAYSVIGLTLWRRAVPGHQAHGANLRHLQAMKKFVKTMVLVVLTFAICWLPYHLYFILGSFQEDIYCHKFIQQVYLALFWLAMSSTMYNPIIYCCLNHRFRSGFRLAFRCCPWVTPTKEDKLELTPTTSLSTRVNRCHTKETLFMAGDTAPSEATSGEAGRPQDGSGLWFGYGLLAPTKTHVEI
# Method: Compound 1 was dissolved in DMSO to a concentration of 100 mM; then a stock solution was serially diluted with DMSO. The maximum starting concentration of the substance is 100 μM. The effect was determined at 5 concentrations of the tested compounds, each concentration was studied twice. CHO cells expressing NK2R were used in the experiment, said sells, after the preincubation with an [Nleu10]-NKA-(4-10) (10 nM) agonist, were incubated with the test compound. The activity of receptors was determined according to the intracellular calcium concentration by fluorescence spectroscopy (Biochem Biophys Res Commun. 1994 May 16; 200(3):1512-20).
# [3] = molecular target: T3, prokineticin receptor type 1 (PK1) (Homo sapiens, UniProt Q8TCW9); test: Activity of prokineticin receptors type 1 (PK1), intracellular calcium, HEK-293 cells; type: cell-based; settings: antagonist, PK1 agonist (3 nM)
# T3 construct: expressed in transfected cells; host or cells: HEK-293 cells
# T3 sequence (Q8TCW9 whole entry): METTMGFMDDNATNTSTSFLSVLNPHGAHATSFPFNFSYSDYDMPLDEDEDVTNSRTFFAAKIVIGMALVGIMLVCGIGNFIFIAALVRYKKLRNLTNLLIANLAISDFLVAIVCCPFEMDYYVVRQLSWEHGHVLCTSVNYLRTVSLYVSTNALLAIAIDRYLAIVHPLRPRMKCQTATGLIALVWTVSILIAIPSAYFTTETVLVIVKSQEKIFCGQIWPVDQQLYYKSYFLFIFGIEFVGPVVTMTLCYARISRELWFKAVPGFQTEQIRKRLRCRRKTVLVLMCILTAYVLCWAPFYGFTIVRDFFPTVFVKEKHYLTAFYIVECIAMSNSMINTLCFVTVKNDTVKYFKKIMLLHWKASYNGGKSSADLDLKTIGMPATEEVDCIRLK
# Method: (§1) Compound 1 was dissolved in DMSO to a concentration of 100 mM; then a stock solution was serially diluted with DMSO. The maximum starting concentration of the substance is 100 μM. The effect was determined at 5 concentrations of the tested compounds, each concentration was studied twice. HEK-293 cells expressing prokineticin receptors PK1 were used in the experiment, these cells, after preincubation with a PK1 agonist (3 nM), were incubated with the test compound. The activity of receptors was determined according to the intracellular calcium concentration by the fluorescence spectroscopy (Mol Pharmacol. 2005 June; 67(6):2070-6).
# [4] = molecular target: T4, prokineticin receptor type 2 (PK2) (Homo sapiens, UniProt Q8NFJ6); test: Activity of prokineticin receptors type 2 (PK2), intracellular calcium, HEK-293 cells; type: cell-based; settings: antagonist, PK2 agonist (2 nM)
# T4 construct: expressed in transfected cells; host or cells: HEK-293 cells
# T4 sequence (Q8NFJ6 whole entry): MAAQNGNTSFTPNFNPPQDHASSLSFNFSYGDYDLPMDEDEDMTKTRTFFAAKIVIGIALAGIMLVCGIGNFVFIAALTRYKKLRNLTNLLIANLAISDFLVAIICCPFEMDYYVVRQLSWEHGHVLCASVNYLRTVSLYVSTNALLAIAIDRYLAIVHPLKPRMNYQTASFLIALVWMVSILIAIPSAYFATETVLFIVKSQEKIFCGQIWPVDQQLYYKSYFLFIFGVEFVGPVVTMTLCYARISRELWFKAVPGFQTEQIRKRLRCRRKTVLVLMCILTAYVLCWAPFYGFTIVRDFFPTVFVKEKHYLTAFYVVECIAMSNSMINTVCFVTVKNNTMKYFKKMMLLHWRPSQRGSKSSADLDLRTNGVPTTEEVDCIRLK
# Method: as §1, with “prokinetycin” for “prokineticin”, “PK2” for “PK1”, “(2” for “(3”
# [5] = molecular target: T5, melanocortin receptor MC4R (Homo sapiens, UniProt P32245); test: Activity of melanocortin receptors MC4R, CHO cells; type: cell-based; settings: antagonist, NDP-alpha-MSH agonist (30 nM)
# T5 construct: expressed in transfected cells; host or cells: CHO cells
# T5 sequence (P32245 whole entry): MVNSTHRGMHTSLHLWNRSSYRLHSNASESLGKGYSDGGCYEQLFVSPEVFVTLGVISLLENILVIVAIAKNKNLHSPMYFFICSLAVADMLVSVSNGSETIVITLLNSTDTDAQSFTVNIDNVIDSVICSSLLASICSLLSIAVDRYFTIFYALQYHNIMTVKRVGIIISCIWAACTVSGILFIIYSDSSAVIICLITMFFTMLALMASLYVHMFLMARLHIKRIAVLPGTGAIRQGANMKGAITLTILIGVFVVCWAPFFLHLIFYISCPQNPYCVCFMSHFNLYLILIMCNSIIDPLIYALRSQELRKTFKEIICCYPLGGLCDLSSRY
# Method: Compound 1 was dissolved in DMSO to a concentration of 100 mM; then a stock solution was serially diluted with DMSO. The maximum starting concentration of the substance is 100 μM. The effect was determined at 5 concentrations of the tested compounds, each concentration was studied twice. CHO cells expressing a melanocortin receptor MC4R were used in the experiment, these cells, after preincubation with a NDP-alpha-MSH agonist (30 nM), were incubated with the test compound. The activity of receptors was determined according to the intracellular calcium concentration by the homogeneous time resolved fluorescence spectroscopy.
# indomethacin colitis = test: Model of colitis induced by indomethacin; type: in vivo, male Wistar rats; settings: 100 mg/kg; day 4; M ± m, n = 10
# Method: The study was performed on male Wistar rats, which were subcutaneously injected with an indomethacin solution in a dose of 9 mg/kg for two days running to induce colitis. The injection solution was prepared as follows: first, indomethacin was dissolved in 100% ethanol, then it was diluted in 5% NaHCO3 solution. On the 4th day after euthanasia, the stomach and intestine were removed from the animals in the CO2 chamber, then the caecum was excised, 10 cm from the ileum and large intestine was cut off, and 5 cm—from the caecum, to assess gross lesions (J Ethnopharmacol. 2004 February; 90(2-3): 195-204).
# [6] = Stability in blood plasma, guinea pig; type: in vitro ADME; settings: for Content, % from the initial, Mean (n = 2): guinea pig blood plasma, 1 μM, 37° C.
# Method: Compound 1 at a concentration of 1 μM was incubated for 24 hours in the blood plasma of human and various animal species (rats, mice, guinea pigs, rabbits, horses, dogs, bull, pygmy hogs) at 37° C. Aliquots were taken at time points of 0, 0.25, 1, 2, 4, 8 and 24 hours. In the case of blood plasma of rabbits and monkeys, Compound 1 was incubated for 4 hours, and aliquots were taken at time points 0, 0.25, 1, 4. After the protein precipitation with acetonitrile, samples were analyzed by HPLC-MS/MS to determine the concentration of Compound 1. Verapamil was used as a stable control.
structure (smiles),measurement,setting,value
"O=C(Cc1ccc(O)cc1)N[C@@H](Cc1ccccc1)C(=O)OCc1ccccc1 [Compound 1, benzyl (2S)-2-[2-(4-hydroxyphenyl)acetamido]-3-phenylpropanoate]",IC50,[1],6.7 µM
same,IC50,[2],8.4 µM
same,IC50,[3],5.7 µM
same,IC50,[4],5.4 µM
same,IC50,[5],7.6 µM
same,"Macroscopic assessment of the lesion, Caecum",indomethacin colitis,0.4 ± 0.2 points
same,"Macroscopic assessment of the lesion, Ileum",indomethacin colitis,0.6 ± 0.3& points
same,"Macroscopic assessment of the lesion, Large intestine",indomethacin colitis,0.2 ± 0.1& points
same,"Macroscopic assessment of the lesion, Overall assessment",indomethacin colitis,1.2 ± 0.4*& points
same,hydrolysis in the blood plasma (in words),"[6]; blood plasma of guinea pigs, after 15 minutes",almost completely hydrolyzed
same,"Content, % from the initial, Mean (n = 2)",[6]; 0 hour,100%
same,"Content, % from the initial, Mean (n = 2)",[6]; 0.25 hour,0.00%
same,"Content, % from the initial, Mean (n = 2)",[6]; 1 hour,0.00%
same,"Content, % from the initial, Mean (n = 2)",[6]; 2 hour,0.00%
same,"Content, % from the initial, Mean (n = 2)",[6]; 4 hour,0.00%
same,"Content, % from the initial, Mean (n = 2)",[6]; 8 hour,0.00%
same,"Content, % from the initial, Mean (n = 2)",[6]; 24 hour,0.00%
